The values below come from US9062087B2, “Phenyl C-glucoside derivatives, preparation methods and uses thereof” (Tianjin Institute of Pharmaceutical Research, priority 2010, dated 2015).

For this assay, the system named is healthy ICR mice. The experiment in a line: glucose tolerance test in fasted ICR mice (in vivo hypoglycemic model), serum glucose by glucose oxidase method. To be noted: ICR mice fasted 16 h, dosage 10 mg/kg in 1% sodium carboxymethylcellulose, 2 g/kg glucose i.p. 2 h after test compound (Dapagliflozin: 1.5 h); for blood glucose at 0.5 h: serum 0.5 h after glucose; for blood glucose at 1 h: serum 1 h after glucose; for blood glucose at 2 h: serum 2 h after glucose; for blood glucose at 3 h: serum 3 h after glucose; for blood glucose at 4 h: serum 4 h after glucose. How it is done:
A suspension of the test compounds with […] was prepared by dissolving the sample in 1% sodium carboxymethylcellulose solution. The administration dosage is 0.2 ml/20 g body weight, which equals to a dosage of 10 mg/kg.
Female and male of healthy ICR mice are half to half, and the weight is 20-24 g, in accordance with standard level one. Animals were fasted for 16 hours. 2 g/kg glucose in saline was intraperitoneally injected 2 hours after the test compounds (for Dapagliflozin, glucose was injected 1.5 hours after medicine), and blood samples were collected from mice tall vein using capillary at fixed times of 0.5 h, 1 h, 2 h, 3 h and 4 h after challenging with glucose. The sera were separated using centrifugation. The glucose oxidase method was used to measure glucose content of serum at different time points.

With `CCOc1ccc(Cc2cc([C@@H]3O[C@H](CO)[C@@H](O)[C@H](O)[C@H]3O)ccc2Cl)cc1` [Dapagliflozin, reference compound], the “blood glucose at 0.5 h” value worked out at 277.1 ± 42.4 mg/dL, the “blood glucose at 1 h” value is 172.1 ± 34.1 mg/dL, the “blood glucose at 2 h” value was found to be 92.1 ± 21.1 mg/dL and the “blood glucose at 3 h” value amounted to 81.3 ± 20.1 mg/dL. Further, the “blood glucose at 4 h” value was 60.0 ± 11.0 mg/dL.

`CCOc1ccc(C(F)c2cc([C@@H]3O[C@H](CO)[C@@H](O)[C@H](O)[C@H]3O)ccc2Cl)cc1` (stereo partly drawn) [Example 1, 1-{4-chloro-3-[(4-ethyoxyphenyl)fluoromethyl]phenyl}-1-deoxy-β-D-glucopyranose]: the “blood glucose at 0.5 h” value was 194.1 ± 41.3 mg/dL, the “blood glucose at 1 h” value came to 161.1 ± 35.4 mg/dL, the “blood glucose at 2 h” value was 97.3 ± 31.2 mg/dL and the “blood glucose at 3 h” value is 69.1 ± 22.1 mg/dL. The “blood glucose at 4 h” value amounted to 67.2 ± 17.1 mg/dL.

As for `CCOc1ccc(C(C)(C)c2cc([C@@H]3O[C@H](CO)[C@@H](O)[C@H](O)[C@H]3O)ccc2Cl)cc1` [Example 16, 1-{4-chloro-3-[(dimethyl)(4-ethyoxyphenyl)methyl]phenyl}-1-deoxy-β-D-glucopyranose], the “blood glucose at 0.5 h” value is 157.1 ± 21.3 mg/dL, the “blood glucose at 1 h” value amounted to 137.0 ± 27.7 mg/dL, the “blood glucose at 2 h” value was found to be 102.4 ± 17.5 mg/dL and the “blood glucose at 3 h” value was 88.1 ± 32.2 mg/dL. Moreover, the “blood glucose at 4 h” value turned out to be 70.3 ± 14.2 mg/dL.

For the compound `CCOc1ccc(C(C)c2cc([C@@H]3O[C@H](CO)[C@@H](O)[C@H](O)[C@H]3O)ccc2Cl)cc1` (stereo partly drawn) [Example 36, 1-{4-chloro-3-[1-(4-ethyoxyphenyl)ethyl]phenyl}-1-deoxy-β-D-glucopyranose], the “blood glucose at 0.5 h” value worked out at 189.1 ± 21.2 mg/dL, the “blood glucose at 1 h” value worked out at 120.1 ± 10.2 mg/dL, the “blood glucose at 2 h” value was determined as 113.0 ± 11.0 mg/dL and the “blood glucose at 3 h” value stood at 74.6 ± 21.0 mg/dL. In addition, the “blood glucose at 4 h” value was determined as 69.1 ± 13.2 mg/dL.

For the compound `CCOc1ccc(C(C)(OC)c2cc([C@@H]3O[C@H](CO)[C@@H](O)[C@H](O)[C@H]3O)ccc2Cl)cc1` (stereo partly drawn) [Example 51, 1-{4-chloro-3-[1-(4-ethyoxyphenyl)-1-methoxyethyl]phenyl}-1-deoxy-β-D-glucopyranose], the “blood glucose at 0.5 h” value is 250.5 ± 33.1 mg/dL, the “blood glucose at 1 h” value was 158.2 ± 20.6 mg/dL, the “blood glucose at 2 h” value came out at 123.2 ± 33.1 mg/dL and the “blood glucose at 3 h” value was 101.2 ± 11.7 mg/dL. For the same compound, the “blood glucose at 4 h” value amounted to 75.5 ± 21.4 mg/dL.

In the case of `CCOc1ccc(C(C)(F)c2cc([C@@H]3O[C@H](CO)[C@@H](O)[C@H](O)[C@H]3O)ccc2Cl)cc1` (stereo partly drawn) [Example 52, 1-{4-chloro-3-[1-(4-ethyoxyphenyl)-1-fluoroethyl]phenyl}-1-deoxy-β-D-glucopyranose], the “blood glucose at 0.5 h” value was 209.3 ± 30.4 mg/dL, the “blood glucose at 1 h” value worked out at 175.1 ± 20.5 mg/dL, the “blood glucose at 2 h” value was 158.6 ± 31.1 mg/dL and the “blood glucose at 3 h” value came out at 101.2 ± 12.4 mg/dL. Also, the “blood glucose at 4 h” value stood at 80.0 ± 13.2 mg/dL.

As to `CCOc1ccc(C(OC)c2cc([C@@H]3O[C@H](CO)[C@@H](O)[C@H](O)[C@H]3O)ccc2Cl)cc1` (stereo partly drawn) [Example 53, 1-{4-chloro-3-[1-(4-ethyoxyphenyl)(methoxyl)methyl]phenyl}-1-deoxy-β-D-glucopyranose], the “blood glucose at 0.5 h” value was 199.0 ± 21.3 mg/dL, the “blood glucose at 1 h” value is 171.4 ± 36.1 mg/dL, the “blood glucose at 2 h” value is 110.2 ± 20.8 mg/dL and the “blood glucose at 3 h” value was determined as 93.0 ± 17.7 mg/dL. Besides, the “blood glucose at 4 h” value came to 69.6 ± 17.3 mg/dL.
